One data set has as its target T1, 17β-HSD1 (Homo sapiens, UniProt P14061).
T1 construct: In both cases, human placenta served as the enzyme source; from tissue; host or cells: human placenta
T1 sequence (P14061 1-328): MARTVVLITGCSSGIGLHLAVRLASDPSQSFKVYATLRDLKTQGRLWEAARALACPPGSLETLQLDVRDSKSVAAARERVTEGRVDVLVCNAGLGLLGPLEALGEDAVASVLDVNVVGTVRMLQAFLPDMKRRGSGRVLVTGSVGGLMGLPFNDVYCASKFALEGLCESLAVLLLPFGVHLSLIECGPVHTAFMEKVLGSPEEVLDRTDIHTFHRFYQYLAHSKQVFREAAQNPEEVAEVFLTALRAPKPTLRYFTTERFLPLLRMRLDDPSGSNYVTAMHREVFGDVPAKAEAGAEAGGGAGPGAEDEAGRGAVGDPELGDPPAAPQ
The data set is described as follows: Inhibition of 17β-HSD1 (estrone to estradiol, radio-HPLC). The class given is biochemical. Particulars: for IC50: human placenta enzyme, 500 nM estrone, NADH 500 μM; for Selectivity IC50 (17β-HSD2)/IC50 (17β-HSD1): ratio of IC50 values. As for the experimental part: In the 17β-HSD1 test, NADH is employed as a cosubstrate at a final concentration of 500 μM in order to avoid the product inhibition occurring with NADPH. The enzyme preparation is diluted with test buffer to such an extent that the control conversion is 10 to maximally 20% (about 1:650). As the substrate, estrone in a final concentration of 500 nM is used, of which 3 nM is tritiated. 2,4,6,7-[^3H]estrone is purchased from Perkin-Elmer, Boston. The inhibitor is added as a solution in DMSO (control: pure DMSO without inhibitor; the final concentration of DMSO in the assay is 1% in all cases).
(§1) After the reaction, the substrate and product are extracted by partitioning with ether, separated by chromatography (HPLC) and quantified by means of radiodetection.

In another data set the target is T2, 17β-HSD2 (Homo sapiens, UniProt P37059).
T2 construct: from tissue; host or cells: human placenta, microsome fraction
T2 sequence (P37059 1-387): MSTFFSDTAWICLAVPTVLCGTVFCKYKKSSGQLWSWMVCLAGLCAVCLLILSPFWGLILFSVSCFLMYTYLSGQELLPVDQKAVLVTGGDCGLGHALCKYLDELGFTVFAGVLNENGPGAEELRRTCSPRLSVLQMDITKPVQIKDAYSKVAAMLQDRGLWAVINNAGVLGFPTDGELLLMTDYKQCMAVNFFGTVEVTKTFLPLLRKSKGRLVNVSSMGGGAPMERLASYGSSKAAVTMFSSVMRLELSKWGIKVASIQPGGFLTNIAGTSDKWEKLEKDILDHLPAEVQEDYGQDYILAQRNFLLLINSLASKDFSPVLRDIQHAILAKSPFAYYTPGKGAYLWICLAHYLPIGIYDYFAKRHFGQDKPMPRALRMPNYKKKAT
In words: Inhibition of 17β-HSD2 (estradiol to estrone, radio-HPLC). Type of data set: biochemical. As to conditions: human placenta microsome fraction, 500 nM estradiol, NAD+ 1500 μM. As for the experimental part:
Determination of the inhibitory activity of the potential inhibitors: Inhibition of 17β-HSD1 and 17β-HSD2: In both cases, human placenta served as the enzyme source (Lin, S.-X. et al., J. Biol. Chem., 267: 16182-16187 (1992)).
In the 17β-HSD2 test, the natural cosubstrate NAD^+ is employed at a final concentration of 1500 μM. The microsome fraction is diluted in test buffer, so that a control conversion of 20 to 30% results (about 1:350). As the substrate, estradiol in a final concentration of 500 nM is used, of which 3 nM is tritiated. 2,4,6,7-[^3H]estradiol is also purchased from Perkin-Elmer, Boston. The inhibitor is added as a solution in DMSO (control: pure DMSO without inhibitor; the final concentration of DMSO in the assay is […]). After the addition of the substrate, incubation is performed at 37° C. for 20 minutes. The reaction is quenched by the addition of HgCl2 (final concentration of HgCl2: 0.166 mM).
as §1

The nature of the next data set: CaCo2 transport assay. Type of data set: in vitro ADME. Particulars: human, Caco-2; 50 μM in donor compartment; read-out: Papp [cm/sec ± rel. SD]. The method, then:
(§2) Performance of selected compounds in a CaCo2 assay: Caco-2 cell culture and transport experiments were performed according to Yee (Yee, S., Pharm. Res., 14(6): 763-766 (1997)), but slight modifications were introduced. The cultivation times were reduced from 21 to 10 days by increasing the sowing density from 6.3·10^4 to 1.65·10^5 cells per well. […] The initial concentration of the compounds in the donor compartment was 50 μM (in buffer with 1% ethanol or DMSO). Samples were taken from the acceptor side after 60, 120 and 180 min and from the donor side after 0 and 180 min. For glycoprotein P (P-gp) studies, bidirectional experiments were performed. The absorptive and secretory permeabilities (Papp (a-b) and Papp (b-a)) were determined. Thus, erythromycin was used as a substrate, and verapamil was used as an inhibitor of P-gp. Each experiment was performed in triplicate. The integrity of the monolayer was determined by means of TEER (transepithelial electric resistance) and the permeability for each assay was determined using Lucifer Yellow. All samples of the CaCo-2 transport experiments were analyzed by means of LC/MS/MS after dilution with buffer (1:1 with 2% acetic acid). The apparent permeability coefficient (Papp) was calculated by means of the formula given below, where dQ/dt represents the recovery rate of the mass in the acceptor compartment, A represents the surface area of the transwell membrane, and c0 represents the initial concentration in the donor compartment.

Another data set relates to CaCo-2 cells. In words: CaCo2 transport assay. As to conditions: 50 μM in donor compartment. Type of data set: in vitro ADME. As for the experimental part:
as §2
In general terms: Caco-2 cells form a polarised layer with tight junctions and transporters.

The next data set has as its target T3, CYP1A2 (Homo sapiens, UniProt P05177).
T3 construct: purchased Becton Dickinson GmbH (Heidelberg)
T3 sequence (P05177 1-516): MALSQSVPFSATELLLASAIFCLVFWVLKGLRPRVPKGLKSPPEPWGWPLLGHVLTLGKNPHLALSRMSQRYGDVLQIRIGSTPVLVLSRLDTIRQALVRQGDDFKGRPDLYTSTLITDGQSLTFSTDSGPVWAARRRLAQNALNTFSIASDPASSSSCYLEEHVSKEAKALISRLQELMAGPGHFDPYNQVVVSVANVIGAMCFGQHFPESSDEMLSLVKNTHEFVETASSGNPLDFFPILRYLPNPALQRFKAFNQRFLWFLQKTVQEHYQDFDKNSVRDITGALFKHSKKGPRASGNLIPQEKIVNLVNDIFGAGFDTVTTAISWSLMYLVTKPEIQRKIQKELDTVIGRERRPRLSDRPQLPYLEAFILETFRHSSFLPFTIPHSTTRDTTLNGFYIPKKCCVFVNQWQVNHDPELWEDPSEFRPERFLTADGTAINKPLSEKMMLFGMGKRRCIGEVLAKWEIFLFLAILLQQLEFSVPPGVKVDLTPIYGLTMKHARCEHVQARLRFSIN
The data set is described as follows: Inhibition of hepatic CYP enzymes: CYP1A2. As to conditions: read-out: CYP1A2 IC50 (mean ± SD). Type of data set: biochemical. The source says: (§3) Drug interactions (inhibition of hepatic CYP enzymes): The inhibition of six human hepatic cytochrome P450 enzymes by selected compounds was examined by means of the kit supplied by Becton Dickinson GmbH (Heidelberg).

A further data set has as its target T4, CYP2C19 (Homo sapiens, UniProt P33261).
T4 construct: purchased Becton Dickinson GmbH (Heidelberg)
In words: Inhibition of hepatic CYP enzymes: CYP2C19. Type of data set: biochemical.
Description: as §3

Data set [1] is described as follows: In vivo pharmacokinetics (rat), peroral cassette dosing. Details: species or system Wistar rats. Particulars: 10 mg/kg; for AUC(0-inf): extrapolated to ∞; for half-life: read-out: t1/2z (half life) (converted); for Tmax: read-out: tmax obs (time to reach the highest measured concentration). The method, then:
In vivo pharmacokinetics (rat): The compounds 29, 45, 47 and 59 and a reference compound were administered to adult male Wistar rats (n=4) perorally in a cassette dosing method (vehicle: Labrasol/water 1/1). The plasma profiles were established by means of LC-MS/MS.
• Cmax obs highest measured concentration • Cz last analytically quantifiable concentration • tmax obs time to reach the highest measured concentration • tz time to withdrawal of the last sample with analytically quantifiable concentration • t1/2z half life (determined from the slope of the declining portion of the concentration vs. time curve • AUC0-tz area below the concentration vs. time curve up to time tZ • AUC0-∞ area below the concentration vs. time curve, extrapolated to ∞

Structures are written as SMILES.

For orientation: IC50 means the point on the concentration scale where inhibition reaches its midpoint. Broadly, the AUC(0-t) is the area under the concentration-time curve up to a stated or last time point. A higher AUC(0-t) goes with more exposure. By AUC(0-inf) is commonly meant the area under the concentration-time curve extrapolated to infinity.

T4 sequence (P33261 whole entry): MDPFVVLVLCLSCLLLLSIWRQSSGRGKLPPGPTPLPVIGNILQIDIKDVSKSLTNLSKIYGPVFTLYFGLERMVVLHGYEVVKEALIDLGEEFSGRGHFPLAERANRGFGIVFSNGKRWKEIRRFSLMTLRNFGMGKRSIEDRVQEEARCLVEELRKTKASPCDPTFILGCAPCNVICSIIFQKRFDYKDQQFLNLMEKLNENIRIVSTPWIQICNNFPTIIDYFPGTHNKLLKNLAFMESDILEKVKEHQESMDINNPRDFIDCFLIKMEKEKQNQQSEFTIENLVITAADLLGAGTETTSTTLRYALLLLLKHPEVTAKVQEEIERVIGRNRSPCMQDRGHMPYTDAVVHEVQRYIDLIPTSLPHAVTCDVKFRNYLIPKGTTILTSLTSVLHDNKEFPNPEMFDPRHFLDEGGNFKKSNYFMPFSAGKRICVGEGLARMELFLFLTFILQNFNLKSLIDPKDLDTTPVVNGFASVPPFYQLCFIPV

As for `Oc1ccc(-c2cccc(-c3ccc(O)cc3)c2)cc1` [Compound 41, [1,1′;3′,1″]Terphenyl-4,4″-diol], at 17β-HSD1, the midpoint of inhibition, the IC50, lay at 1600 nM and the “Selectivity IC50 (17β-HSD2)/IC50 (17β-HSD1)” value (“Selectivity IC50” for short) is 1.4. This compound also displayed an IC50 on 17β-HSD2 of 2200 nM. Besides, the Papp at 180 min, 50 μM in the data set “CaCo2 transport assay” is 12.6 ×10⁻⁶ cm/s. For the same compound, the “Permeability (class in words)” value with CaCo-2 cells is on record as “high”.
In the case of `Oc1ccc(-c2cc(-c3cccc(O)c3)cs2)cc1` [Compound 32, 3-[5-(4-Hydroxyphenyl)-3-thienyl]phenol], the IC50 came to 130 nM against 17β-HSD1, 1700 nM on 17β-HSD2, 8680 ± 290 nM on CYP1A2 and 4430 ± 170 nM on CYP2C19. The “Permeability (class in words)” value with CaCo-2 cells is given as “high”.
For `Oc1ccc(-c2cnc(-c3cccc(O)c3)o2)cc1` [Compound 8, 3-[5-(4-Hydroxyphenyl)-1,3-oxazole-2-yl]phenol], the figures for the concentration for half-maximal inhibition (IC50) at 17β-HSD1 and on 17β-HSD2 were 570 nM and 1020 nM, respectively. For the same compound, the “Selectivity IC50” value at 17β-HSD1 was 1.8. Also, the Papp at 180 min, 50 μM in “CaCo2 transport assay” was 7.9 ×10⁻⁶ cm/s. Also, the “Permeability (class in words)” value in the data set on CaCo-2 cells was “medium-high”.
The matching figures for `Oc1ccc(-c2cnc(-c3cccc(O)c3)s2)cc1` [Compound 19, 3-[5-(4-Hydroxyphenyl)-1,3-thiazole-2-yl]phenol]: 50 nM, 4000 nM, 80, 7.8 ×10⁻⁶ cm/s and “medium-high”.
At 17β-HSD1, `Cc1cc(O)cc(-c2ccc(-c3ccc(O)cc3)s2)c1` [Compound 53, 3-[5-(4-Hydroxyphenyl)-2-thienyl]-5-methylphenol] had a concentration for half-maximal inhibition (IC50) of 450 nM. The Papp at 180 min, 50 μM in “CaCo2 transport assay” came out at 24.2 ×10⁻⁶ cm/s. Further, the “Permeability (class in words)” value in the data set with CaCo-2 cells is on record as “high”.
In the case of `Oc1ccc(-c2ccc(-c3cccc(O)c3)s2)cc1` [Compound 29, 3-[5-(4-Hydroxyphenyl)-2-thienyl]phenol], on 17β-HSD1, the half-inhibitory concentration (IC50) is 60 nM and the “Selectivity IC50” value is 33. Besides, at 17β-HSD2, the IC50 was found to be 1950 nM. Also, the Papp at 180 min, 50 μM in “CaCo2 transport assay” was determined as 22 ×10⁻⁶ cm/s. The “Permeability (class in words)” value in the data set with CaCo-2 cells was “high”. Besides, in data set [1], the “tz (time of last sample with quantifiable concentration)” value is recorded as 10.0 h. In addition, the Cz (last analytically quantifiable concentration) in data set [1] (plasma) amounted to 6.56 ng/mL. In data set [1] (male, Wistar, plasma, po), the exposure AUC(0-t) worked out at 99.2 ng·h/mL, the AUC(0-inf) was 99.2 ng·h/mL, the half-life was 1.5 h and the Tmax is 8 h. Also, the Cmax in data set [1] (male, Wistar, po, plasma, read-out: Cmax obs (highest measured concentration)) was 7.8 ng/mL.
As to `Oc1ccc(-c2ncc(-c3cccc(O)c3)s2)cc1` [Compound 20, 3-[2-(4-Hydroxyphenyl)-1,3-thiazole-5-yl]phenol], on 17β-HSD1, the IC50 amounted to 180 nM and the “Selectivity IC50” value came to 17. Moreover, the IC50 at 17β-HSD2 stood at 3100 nM. For the same compound, in the data set “CaCo2 transport assay”, the Papp at 180 min, 50 μM is 11.7 ×10⁻⁶ cm/s. In addition, the “Permeability (class in words)” value in the data set with CaCo-2 cells is recorded as “high”.
For `Oc1cccc(-c2nsc(-c3cccc(O)c3)n2)c1` [Compound 37] the same measures were 180 nM, 3.3, 600 nM, 3.6 ×10⁻⁶ cm/s and “medium”.
For `Oc1ccc(-c2cc(-c3cccc(O)c3)on2)cc1` [Compound 18, 3-[3-(4-Hydroxyphenyl)isoxazole-5-yl]phenol] the same measures were 560 nM, 1.4, 800 nM, 7.3 ×10⁻⁶ cm/s and “medium-high”.
On to `Oc1cccc(-c2nnc(-c3cccc(O)c3)nn2)c1` [Compound 59, 3,3′-(1,2,4,5-Tetrazine-3,6-diyl)diphenol], for which, at 17β-HSD1, the IC50 amounted to 200 nM and the “Selectivity IC50” value came to 26. At 17β-HSD2, this compound registered an IC50 of 5100 nM. Also, the “tz (time of last sample with quantifiable concentration)” value in data set [1] is 10.0 h. The compound further displayed a Cz (last analytically quantifiable concentration) in data set [1] (plasma) of 54 ng/mL. Also, in data set [1] (male, Wistar, plasma, po), the AUC(0-t) was found to be 1200 ng·h/mL, the AUC(0-inf) is 1200 ng·h/mL, the half-life was 1.2 h and the Tmax was 3 h.

These data come from patent US20110046147A1, “17BETA-HYDROXYSTEROID DEHYDROGENASE TYPE 1 INHIBITORS FOR THE TREATMENT OF HORMONE-RELATED DISEASES” (UNIVERSITAT DES SAARLANDES, priority 2007, published 2011).
